Experimental data as given in BindingDB's records for doi:10.1016/S0960-894X(01)80892-1 (1993).

test: Binding affinity against sigma receptor in guinea pig brain preparation was estimated using [3H]3-PPP as radioligand

| Compound | Ki |
| --- | --- |
| C1=C(c2ccccc2)CCN(CCCCc2ccncc2)C1 [4-[4-(4-Phenyl-3,6-dihydro-2H-pyridin-1-yl)-butyl]-pyridine] | 2.72 nM |
| Cc1ccc(C2=CCN(CCCCc3ccncc3)CC2)cc1 [4-[4-(4-p-Tolyl-3,6-dihydro-2H-pyridin-1-yl)-butyl]-pyridine] | 5.86 nM |
| COc1ccc(C2=CCN(CCCCc3ccncc3)CC2)cc1 [4-{4-[4-(4-Methoxy-phenyl)-3,6-dihydro-2H-pyridin-1-yl]-butyl}-pyridine] | 0.45 nM |
| C1=C(c2ccccn2)CCN(CCCCc2ccncc2)C1 [1'-(4-Pyridin-4-yl-butyl)-1',2',3',6'-tetrahydro-[2,4']bipyridinyl] | 44.5 nM |
| C1=C(c2c[nH]c3ccccc23)CCN(CCCCc2ccncc2)C1 [3-[1-(4-Pyridin-4-yl-butyl)-1,2,3,6-tetrahydro-pyridin-4-yl]-1H-indole] | 10.3 nM |
| C1=C(c2cccs2)CCN(CCCCc2ccncc2)C1 [4-[4-(4-Thiophen-2-yl-3,6-dihydro-2H-pyridin-1-yl)-butyl]-pyridine] | 2.13 nM |
| Clc1ccc(C2=CCN(CCCCc3ccncc3)CC2)cc1 [4-{4-[4-(4-Chloro-phenyl)-3,6-dihydro-2H-pyridin-1-yl]-butyl}-pyridine] | 1.04 nM |
| Fc1ccc(C2=CCN(CCCCc3ccncc3)CC2)cc1 [4-{4-[4-(4-Fluoro-phenyl)-3,6-dihydro-2H-pyridin-1-yl]-butyl}-pyridine] | 1.75 nM |
| C1=C(c2ccc3ccccc3c2)CCN(CCCCc2ccncc2)C1 [4-[4-(4-Naphthalen-2-yl-3,6-dihydro-2H-pyridin-1-yl)-butyl]-pyridine] | 3.07 nM |
